Where two headings read alike, the source gives them in different places.
Experiments:
EKVX [1] = tested on: EKVX
MOLT-4 [2] = assay: cells; conditions: Homo sapiens
EKVX [3] = assay: cells; conditions: Homo sapiens
DU-145 [4] = assay: cells; conditions: Homo sapiens
NCI-H460 [5] = tested on: NCI-H460
HOP-62 [6] = assay: cells; conditions: Homo sapiens
PC-3 [7] = assay: cells; conditions: Homo sapiens
HS 578T = assay: in vitro test at 1.0×10^−5 M, Breast cancer cell; format: cell-based; conditions: 1.0×10^−5 molal concentration (M)
NCI-H460 [8] = assay: cells; conditions: Homo sapiens
HL-60(TB) [9] = tested on: HL-60(TB)
NCI-H226 = assay: cells; conditions: Homo sapiens
NCI-H522 [10] = assay: cells; conditions: Homo sapiens
NCI-H23 [11] = assay: cells; conditions: Homo sapiens
DU-145 [12] = tested on: DU-145
MOLT-4 [13] = tested on: MOLT-4
HOP-62 [14] = assay: in vitro test at 1.0×10^−5 M, Non-small cell lung cancer cell; format: cell-based; conditions: 1.0×10^−5 molal concentration (M)
RPMI-8226 [15] = assay: cells; conditions: Homo sapiens
K-562 [16] = tested on: K-562
HOP-92 [17] = assay: cells; conditions: Homo sapiens
CCRF-CEM [18] = assay: cells; conditions: Homo sapiens
CCRF-CEM [19] = tested on: CCRF-CEM
[20] = tested on: different cancer cell lines; assay: in vitro test at 1.0×10^−5 M, summary over the cell lines; format: cell-based; conditions: 1.0×10^−5 molal concentration (M)
A549/ATCC = assay: cells; conditions: Homo sapiens
HL-60(TB) [21] = assay: cells; conditions: Homo sapiens
RPMI-8226 [22] = tested on: RPMI-8226
NCI-H23 [23] = tested on: NCI-H23
K-562 [24] = assay: cells; conditions: Homo sapiens
NCI-H522 [25] = tested on: NCI-H522
PC-3 [26] = tested on: PC-3
HCC-2998 = assay: in vitro test at 1.0×10^−5 M, Colorectal cancer cell; format: cell-based; conditions: 1.0×10^−5 molal concentration (M)
LOX IMV1 = assay: in vitro test at 1.0×10^−5 M, Skin cancer cell; format: cell-based; conditions: 1.0×10^−5 molal concentration (M)
HOP-92 [27] = tested on: HOP-92

SMILES: O=C1c2ccccc2C(=O)c2c1ccc1nsnc21 [No. 22, Anthra[2,1-c][1,2,5]thiadiazole-6,11-dione]
- TGI (EKVX [1]; EKVX): 7.03E−6
- Percent Growth (EKVX [1]; Log10 Concentration −4.0): −62%
- Percent Growth (EKVX [1]; Log10 Concentration −5.0): −15%
- Percent Growth (EKVX [1]; Log10 Concentration −6.0): 84%
- Percent Growth (EKVX [1]; Log10 Concentration −7.0): 89%
- Percent Growth (EKVX [1]; Log10 Concentration −8.0): 96%
- GI50 (MOLT-4 [2]; MOLT-4): 1590 nM
- CC50 (MOLT-4 [2]; MOLT-4, read-out: LC50): > 100 µM
- GI50 (EKVX [3]): 2190 nM
- CC50 (EKVX [3]; read-out: LC50): 56.5 µM
- GI50 (DU-145 [4]; DU-145): 7.41 µM
- CC50 (DU-145 [4]; DU-145, read-out: LC50): 44.2 µM
- Percent Growth (NCI-H460 [5]; Log10 Concentration −4.0): −58%
- Percent Growth (NCI-H460 [5]; Log10 Concentration −5.0): −53%
- Percent Growth (NCI-H460 [5]; Log10 Concentration −6.0): 87%
- Percent Growth (NCI-H460 [5]; Log10 Concentration −7.0): 97%
- Percent Growth (NCI-H460 [5]; Log10 Concentration −8.0): 100%
- TGI (NCI-H460 [5]; NCI-H460): 4.19E−6
- GI50 (HOP-62 [6]; HOP-62): 3.59 µM
- CC50 (HOP-62 [6]; HOP-62, read-out: LC50): > 100 µM
- GI50 (PC-3 [7]; PC-3): 3.03 µM
- CC50 (PC-3 [7]; PC-3, read-out: LC50): > 100 µM
- inhibition effect on cancer cell line (Table 2 value) (HS 578T): −7.40
- GI50 (NCI-H460 [8]; NCI-H460): 1840 nM
- CC50 (NCI-H460 [8]; NCI-H460, read-out: LC50): 9.54 µM
- TGI (HL-60(TB) [9]; HL-60(TB)): 5.13E−6
- Percent Growth (HL-60(TB) [9]; Log10 Concentration −4.0): −43%
- Percent Growth (HL-60(TB) [9]; Log10 Concentration −5.0): −38%
- Percent Growth (HL-60(TB) [9]; Log10 Concentration −6.0): 93%
- Percent Growth (HL-60(TB) [9]; Log10 Concentration −7.0): 102%
- Percent Growth (HL-60(TB) [9]; Log10 Concentration −8.0): 103%
- GI50 (NCI-H226; NCI-H226): 15.6 µM
- CC50 (NCI-H226; NCI-H226, read-out: LC50): > 100 µM
- GI50 (NCI-H522 [10]; NCI-H522): 3.01 µM
- CC50 (NCI-H522 [10]; NCI-H522, read-out: LC50): > 100 µM
- GI50 (NCI-H23 [11]; NCI-H23): 802 nM
- CC50 (NCI-H23 [11]; NCI-H23, read-out: LC50): > 100 µM
- TGI (DU-145 [12]; DU-145): 1.95E−5
- Percent Growth (DU-145 [12]; Log10 Concentration −4.0): −100%
- Percent Growth (DU-145 [12]; Log10 Concentration −5.0): 41%
- Percent Growth (DU-145 [12]; Log10 Concentration −6.0): 110%
- Percent Growth (DU-145 [12]; Log10 Concentration −7.0): 114%
- Percent Growth (DU-145 [12]; Log10 Concentration −8.0): 110%
- Percent Growth (MOLT-4 [13]; Log10 Concentration −4.0): −38%
- Percent Growth (MOLT-4 [13]; Log10 Concentration −5.0): −40%
- Percent Growth (MOLT-4 [13]; Log10 Concentration −6.0): 73%
- Percent Growth (MOLT-4 [13]; Log10 Concentration −7.0): 99%
- Percent Growth (MOLT-4 [13]; Log10 Concentration −8.0): 97%
- TGI (MOLT-4 [13]; MOLT-4): 4.43E−6
- inhibition effect on cancer cell line (Table 2 value) (HOP-62 [14]): −100.00
- GI50 (RPMI-8226 [15]; RPMI-8226): 1530 nM
- CC50 (RPMI-8226 [15]; RPMI-8226, read-out: LC50): > 100 µM
- TGI (K-562 [16]; K-562): 4.92E−5
- Percent Growth (K-562 [16]; Log10 Concentration −4.0): −8%
- Percent Growth (K-562 [16]; Log10 Concentration −5.0): 19%
- Percent Growth (K-562 [16]; Log10 Concentration −6.0): 83%
- Percent Growth (K-562 [16]; Log10 Concentration −7.0): 96%
- Percent Growth (K-562 [16]; Log10 Concentration −8.0): 101%
- GI50 (HOP-92 [17]; HOP-92): 2910 nM
- CC50 (HOP-92 [17]; HOP-92, read-out: LC50): > 100 µM
- GI50 (CCRF-CEM [18]): 2180 nM
- CC50 (CCRF-CEM [18]; read-out: LC50): > 100 µM
- TGI (CCRF-CEM [19]; CCRF-CEM): >1.00E−4
- Percent Growth (CCRF-CEM [19]; Log10 Concentration −4.0): 2%
- Percent Growth (CCRF-CEM [19]; Log10 Concentration −5.0): 2%
- Percent Growth (CCRF-CEM [19]; Log10 Concentration −6.0): 74%
- Percent Growth (CCRF-CEM [19]; Log10 Concentration −7.0): 90%
- Percent Growth (CCRF-CEM [19]; Log10 Concentration −8.0): 97%
- Mean [20]: 2.68
- GI50 (A549/ATCC; A549): 2250 nM
- CC50 (A549/ATCC; A549, read-out: LC50): > 100 µM
- GI50 (HL-60(TB) [21]; HL-60): 2140 nM
- CC50 (HL-60(TB) [21]; HL-60, read-out: LC50): > 100 µM
- Percent Growth (RPMI-8226 [22]; Log10 Concentration −4.0): −20%
- Percent Growth (RPMI-8226 [22]; Log10 Concentration −6.0): 61%
- Percent Growth (RPMI-8226 [22]; Log10 Concentration −7.0): 94%
- Percent Growth (RPMI-8226 [22]; Log10 Concentration −8.0): 100%
- TGI (RPMI-8226 [22]; RPMI-8226): 9.91E−6
- Percent Growth (NCI-H23 [23]; Log10 Concentration −4.0): −35%
- Percent Growth (NCI-H23 [23]; Log10 Concentration −5.0): −37%
- Percent Growth (NCI-H23 [23]; Log10 Concentration −6.0): 46%
- Percent Growth (NCI-H23 [23]; Log10 Concentration −7.0): 91%
- Percent Growth (NCI-H23 [23]; Log10 Concentration −8.0): 101%
- TGI (NCI-H23 [23]; NCI-H23): 3.59E−6
- GI50 (K-562 [24]; K562): 3.23 µM
- CC50 (K-562 [24]; K562, read-out: LC50): > 100 µM
- Percent Growth (NCI-H522 [25]; Log10 Concentration −4.0): −18%
- Percent Growth (NCI-H522 [25]; Log10 Concentration −5.0): 6%
- Percent Growth (NCI-H522 [25]; Log10 Concentration −6.0): 90%
- Percent Growth (NCI-H522 [25]; Log10 Concentration −7.0): 103%
- Percent Growth (NCI-H522 [25]; Log10 Concentration −8.0): 103%
- TGI (NCI-H522 [25]; NCI-H522): 1.78E−5
- Percent Growth (PC-3 [26]; Log10 Concentration −4.0): 4%
- Percent Growth (PC-3 [26]; Log10 Concentration −5.0): 11%
- Percent Growth (PC-3 [26]; Log10 Concentration −6.0): 86%
- Percent Growth (PC-3 [26]; Log10 Concentration −7.0): 92%
- Percent Growth (PC-3 [26]; Log10 Concentration −8.0): 96%
- TGI (PC-3 [26]; PC-3): >1.00E−4
- inhibition effect on cancer cell line (Table 2 value) (HCC-2998): −50.00
- inhibition effect on cancer cell line (Table 2 value) (LOX IMV1): −50.6
- TGI (HOP-92 [27]; HOP-92): 9.84E−6
- Percent Growth (HOP-92 [27]; Log10 Concentration −4.0): −27%
- Percent Growth (HOP-92 [27]; Log10 Concentration −5.0): −1%
- Percent Growth (HOP-92 [27]; Log10 Concentration −6.0): 94%
- Percent Growth (HOP-92 [27]; Log10 Concentration −7.0): 88%
- Percent Growth (HOP-92 [27]; Log10 Concentration −8.0): 95%
